Test results: US4786651A, “Treatment of cutaneous hyperproliferative dermatoses with manoalide” (Allergan, Inc., priority 1986, dated 1988)

Assays:
ODC = conditions: tape-stripped mouse epidermis; M. Connor and N. Lowe 1983; cited from earlier work
humans = conditions: cited from earlier work
[1] = system: ornithine decarboxylase (ODC); assay: Tape-stripped epidermal ODC activity in female hairless mice (In Vivo Assay); set-up: species or system mouse (female hairless mice)
From the text: (§1) Tape-stripping mouse epidermis is quick and convenient method of inducing ODC activity that avoids the necessity of handling carcinogens. M. Connor and N. Lowe (J. Invest. Dermatol 43, 5174, 1983) have studied the ability of retinoids to inhibit ODC. […] In vitro methods have also been useful in determining the anti-hyperproliferative activity of drugs. C. Marcelo and J. Tomich (J. Invest. Dermatol. 81, 64s, 1983) have shown that neonatal mouse keratinocyte cultures can be used to identify drugs that inhibit DNA synthesis. More recently, R. Weiss, Eichner, R. and Sunn, T. T, J. Cell Biol., 98: 1397-1406, (1984) have shown that epidermal cultures are in fact, a model of epidermal hyperproliferation and therefore a good model for testing drugs that inhibit hyperporliferation.
Female hairless mice were tape-stripped and ODC activity determined according to the method of M. Connor and N. Lowe (J. Invest. Dermatol. 43, 5174, 1983).
**50 mg/kg; IP, 30 min before tapestripping

keratinocytes = assay: Inhibition of DNA synthesis in neonatal mouse keratinocyte cultures (3H-thymidine; In Vitro Assay); format: cell-based, mouse (neonatal balb/c); conditions: daily drug for three days; FIG. 2
From the text: as §1
Keratinocytes from 1-2 day old neonatal balb/c mice were used. Cells were plated in 35 mm culture dishes in M199 medium containing 10% FCS and incubated at 37° C. in 5% CO2. Cells were allowed to reach confluency at which time 0.01, 0.1, 1.0, 10 and 20 μM manoalide was added in DMSO. Fresh media and drug were added each day to culture for three days. On the fourth day cells were pulsed with ^3 H-thymidine (1 µCi/ml) to determine how much manoalide inhibited DNA syntheses (CPM/μg DNA).

SMILES	inhibition of ODC (ODC)	therapeutic activity in humans (humans)	% Inhibition (ODC) ([1]; 50 mg/kg, IP, 30 min before tapestripping, p < .05) [%]	ODC ([1]; 50 mg/kg, IP, 30 min before tapestripping, vehicle (soybean oil) 6.1 ± 1.2)	inhibition of tape-stripped ODC after systemic administration ([1]; systemic administration)	inhibition of keratinocyte DNA synthesis (keratinocytes)
CC1=C(/C=C/C(C)=C/C=C/C(C)=C\C(=O)O)C(C)(C)CCC1 [13-cis retinoic acid]	active at inhibiting ODC	therapeutically active in humans	–	–	–	–
CC1=C(CC/C(C)=C/CCC2=CCC(C3=CC(=O)OC3O)OC2O)C(C)(C)CCC1 (stereo not shown) [Manoalide]	–	–	54	2.8 ± 0.6 nmoles ^14 CO2 (mg protein/mg protein/hr)	can also inhibit tape-stripped ODC	inhibit keratinocyte DNA synthesis in a dose related fashion
CC1=C(/C=C/C(C)=C/C=C/C(C)=C/C(=O)O)C(C)(C)CCC1 [Trans-retinoic acid]	active at inhibiting ODC	therapeutically active in humans	–	–	–	–
CCOC(=O)/C=C(C)/C=C/C=C(C)/C=C/c1c(C)cc(OC)c(C)c1C [etretinate]	active at inhibiting ODC	therapeutically active in humans	–	–	–	–
